Consider seven compounds from patent US9856508B2, “Chemiluminescent compositions, methods, assays and kits for oxidative enzymes” (LIFE TECHNOLOGIES CORPORATION, priority 2010, dated 2018).

Each structure is given as a SMILES string.

Common to all, as to experiment: Isozyme specificity of 1,2-dioxetane substrates, rhCYP microsomes, 2-step endpoint assay
The subject of one data set is 2C19 and 2C18 isozymes. It counts as biochemical, human. The conditions noted are these: dioxetane as enzyme substrate. How it is done: (§1) Assays were performed using the same conditions (25° C., 5 nM rhCyp, 10 μM substrate, 25 min endpoint assay, with isozyme-specific buffers, Luminoscan plate reader) but on different days.
Cytochrome P450 assays have been developed to determine the isozyme specificity of novel 1,2-dioxetane chemiluminescent CYP450 substrates. In these assays, a 1,2-dioxetane substrate that has been determined to be a good substrate for a specific CYP450 isozyme is screened against individual recombinant (human or other) CYP450 isozymes. The protocol follows the 2-Step Endpoint assay format described above (Example 2, Format 1). The assay can be performed using either assay conditions that mimic an inhibition assay (Example 1) using substrate concentrations near the known or predicted Km of the substrate with its known isozyme, or at concentrations designed for more sensitive enzyme detection which is generally above the Km. Assays can be performed in several different ways depending on the desired information. If one is seeking to find out if the dioxetane is a substrate for different CYP450 isozymes at the specific isozyme's preferred assay conditions, the assays should be performed using the buffer and assay conditions preferred by each specific isozyme (Format 1). If one wants to find out if the dioxetane substrate is selective for a given CYP450 isozyme at that isozyme's preferred assay conditions, the assay should be performed using only the assay conditions of the matched isozyme (Format 2). Assays use recombinant human (rh) CYP450 isozymes (final [5 or 10 nM]), NADPH Regeneration System (final [1×]) and Potassium Phosphate Buffer prepared in a 2× Master Mix. 50 μL of the Master Mix is added to the wells of a 96-well plate. 40 μL of water is added the rows of the plate containing the Master Mix. The reaction is started by addition of 10 μL of a 10× NADP+ (nicotinamide adenine dinucleotide phosphate) and 1,2-Dioxetane Substrate (final [1 to 10 μM]) mix to assay wells. The assays are incubated for either 25 min (Format 1) or at the specific assay time (see Example 48, Format 2). […]

In a further data set the test system is CYP3A family isozymes. It counts as biochemical, human. The following applies: dioxetane as enzyme substrate. How it is done:
as §1
(§2) Cytochrome P450 assays have been developed to determine the isozyme specificity of novel 1,2-dioxetane chemiluminescent CYP450 substrates. In these assays, a 1,2-dioxetane substrate that has been determined to be a good substrate for a specific CYP450 isozyme is screened against individual recombinant (human or other) CYP450 isozymes. The protocol follows the 2-Step Endpoint assay format described above (Example 2, Format 1). The assay can be performed using either assay conditions that mimic an inhibition assay (Example 1) using substrate concentrations near the known or predicted Km of the substrate with its known isozyme, or at concentrations designed for more sensitive enzyme detection which is generally above the Km. Assays can be performed in several different ways depending on the desired information. If one is seeking to find out if the dioxetane is a substrate for different CYP450 isozymes at the specific isozyme's preferred assay conditions, the assays should be performed using the buffer and assay conditions preferred by each specific isozyme (Format 1). If one wants to find out if the dioxetane substrate is selective for a given CYP450 isozyme at that isozyme's preferred assay conditions, the assay should be performed using only the assay conditions of the matched isozyme (Format 2). Assays use recombinant human (rh) CYP450 isozymes (final [5 or 10 nM]), NADPH Regeneration System (final [1×]) and Potassium Phosphate Buffer prepared in a 2× Master Mix. 50 μL of the Master Mix is added to the wells of a 96-well plate. 40 μL of water is added the rows of the plate containing the Master Mix. The reaction is started by addition of 10 μL of a 10× NADP+ (nicotinamide adenine dinucleotide phosphate) and 1,2-Dioxetane Substrate (final [1 to 10 μM]) mix to assay wells. The assays are incubated for either 25 min (Format 1) or at the specific assay time (see Example 48, Format 2).
(§3) • (See FIGS. 3A, 4A, and 5A.) Materials: • rhCytochrome P450 Isozymes: • CYP3A4 (BD/Gentest, Cat #456202) (or other vendor) • CYP2C19 (BD/Gentest, Cat #456259) (or other vendor) • CYP2C9 (BD/Gentest, Cat #456258) (or other vendor) • CYP2D6 (BD/Gentest, Cat #456217) (or other vendor) • CYP1A2 (BD/Gentest, Cat #456203) (or other vendor) • Or Other CYP450 recombinant isozymes • 200 mM Potassium Phosphate Buffer, pH 7.4 • 100 mM Potassium Phosphate Buffer, pH 7.4 • 100× NADP+ • (10 mM NADP+ in 100 mM Potassium phosphate buffer, pH 7.4) • 100× Regeneration System • (333 mM Glucose-6-phosphate, 30 Units/mL Glucose-6-phosphate dehydrogenase in 100 mM Potassium Phosphate Buffer, pH 7.4) • 1,2-Dioxetane Substrates (in 100% Acetonitrile, water, or acetonitrile/water mixture) • 96 well white microplate • Accelerator II Protocol Overview: (See, FIG. 10). Assay Set-Up:
(§4) Contains: • NADP+: 100× stock is 10 mM NADP+ in 100 mM Potassium Phosphate Buffer, pH 7.4 • 100 μM Known 1,2-Dioxetane Substrate Assay Procedure: • 1. Thaw all reagents on ice, except substrates: warm-up to RT under aluminum foil (light sensitive) • 2. Prepare 2× Master Mixes in 2× reaction buffer (keep on ice).
(§5) • 3. Add 50 μL of the specific 2× Master Mix to the desired wells • 4. Add 40 μL of sterile water (H2O) to each well of the plate • 5. Cover plate with plate sealer and let the assay wells equilibrate to 25° C. or room temperature for a few minutes while you prepare the 10×NADP+/Substrate Mixture. • 6. Prepare 10× NADP+/Substrate Mixture immediately before use (light sensitive!)
(§6) • 100× NADP+: 10× (1× final) • H2O: to final volume. • Add substrate by trituration and vortex to allow for maximum substrate solubility in the aqueous mixture. • *The final organic solvent concentration in the assay should be less than 0.1% and preferably much less. • 7. […]

The target of a further data set is T1, CYP2C19 (Homo sapiens, UniProt P33261).
T1 construct: purchased BD/Gentest (or other vendor) 456259; host or cells: recombinant human CYP microsomes
T1 sequence (P33261 whole entry): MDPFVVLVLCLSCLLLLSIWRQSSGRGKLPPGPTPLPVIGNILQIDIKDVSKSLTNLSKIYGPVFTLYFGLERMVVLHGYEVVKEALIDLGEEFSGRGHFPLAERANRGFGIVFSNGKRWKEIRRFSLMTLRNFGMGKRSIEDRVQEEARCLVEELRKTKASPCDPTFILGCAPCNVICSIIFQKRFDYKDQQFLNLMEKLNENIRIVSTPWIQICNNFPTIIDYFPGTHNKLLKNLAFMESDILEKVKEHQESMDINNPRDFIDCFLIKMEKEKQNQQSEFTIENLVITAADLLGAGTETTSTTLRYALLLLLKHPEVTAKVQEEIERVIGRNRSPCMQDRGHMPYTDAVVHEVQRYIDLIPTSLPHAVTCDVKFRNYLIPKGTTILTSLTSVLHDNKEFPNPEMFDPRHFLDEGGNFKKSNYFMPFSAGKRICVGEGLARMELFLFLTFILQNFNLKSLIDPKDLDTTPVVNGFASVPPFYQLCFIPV
The class given is biochemical. How it is done:
as §1, §2, §3, §4, §5, §6

The test system of another data set is other CYP isozyme. It counts as biochemical, human. The following applies: FIG. 5A, 25° C., 25 min, 10 μM BZT-Me, 5 nM rhCYP450. The protocol: FIG. 5A and FIG. 5B compare CYP450 isozyme specificity of 1,2-dioxetane substrate BZT-Me in recombinant human microsomes (rhCYPs) and human liver microsomes. FIG. 5A is a graphic representation of isozyme specificity of BZT-Me in rhCYP microsomes. Assays were performed ate 25° C. for 25 min using 10 μM BZT-Me, 5 nM rhCYP450, and isozyme-preferred potassium phosphate buffer, pH 7.4. […] FIG. 5B is a graphic representation of isozyme specificity of BZT-Me in pooled human liver microsomes (HLMs). Assays were performed for 25 min at 25° C. using 20 μM BZT-Me and 50 mM potassium phosphate buffer, pH 7.4. Positive (2C19) and negative (3A4, 2D6, and microsome only) controls were performed using 5 nM rhCYP450 microsomes. Pooled HLMs or low 2C19 HLMs were assayed at 0.5, 0.25, 0.125, or 0.0625 mg/ml. Assays were performed with or without 2 μM ketoconazole to indicate CYP3A family specificity or 0.5 μM miconozole. All assays were performed using the 2-step assay method (Example 48, Format A).
Cytochrome P450 assays have been developed to determine the isozyme specificity of novel 1,2-dioxetane chemiluminescent CYP450 substrates. In these assays, a 1,2-dioxetane substrate that has been determined to be a good substrate for a specific CYP450 isozyme is screened against individual recombinant (human or other) CYP450 isozymes. […]

For another data set, the target named is T2, CYP2C8 (Homo sapiens, UniProt P10632).
T2 construct: host or cells: recombinant human CYP microsomes
T2 sequence (P10632 1-490): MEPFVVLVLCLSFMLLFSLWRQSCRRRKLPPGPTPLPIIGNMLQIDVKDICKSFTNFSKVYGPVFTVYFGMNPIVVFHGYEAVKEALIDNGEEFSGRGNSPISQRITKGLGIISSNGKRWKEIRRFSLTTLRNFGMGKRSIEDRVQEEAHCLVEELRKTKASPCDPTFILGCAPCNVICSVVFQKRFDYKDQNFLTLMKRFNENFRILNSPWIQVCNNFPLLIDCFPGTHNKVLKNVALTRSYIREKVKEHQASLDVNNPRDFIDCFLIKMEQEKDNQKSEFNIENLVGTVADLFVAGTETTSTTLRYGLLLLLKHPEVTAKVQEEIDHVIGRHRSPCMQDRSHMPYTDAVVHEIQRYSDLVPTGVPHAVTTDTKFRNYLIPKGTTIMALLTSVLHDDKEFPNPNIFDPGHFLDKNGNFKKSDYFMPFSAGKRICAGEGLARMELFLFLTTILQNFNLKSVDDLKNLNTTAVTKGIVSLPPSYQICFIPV
The class given is biochemical. The following applies: dioxetane as enzyme substrate. How it is done: as §1, §2, §3, §4, §5, §6

On to `COc1ccc2sc(C3(OC)OOC34C3CC5CC(C3)CC4C5)cc2c1Cl` (stereo not shown) [Cl-BZT-Me], for which the “specificity for 2C19 and 2C18 isozymes” value in the data set on 2C19 and 2C18 isozymes is “strong specificity”.

With `COc1cc(C2(OC)OOC23C2CC4CC3CC(Cl)(C4)C2)ccc1Cl` (stereo not shown) [CDP-Star-Me], the “specificity for 2C19 and 2C18 isozymes” value in the data set on 2C19 and 2C18 isozymes was “strong specificity”.

`CCOc1cc(C2(OC)OOC23C2CC4CC3CC(Cl)(C4)C2)ccc1Cl` (stereo not shown) [CDP-Star-Et, CDP-Star-ET]: the “specificity for 2C19 and 2C18 isozymes” value in the data set with 2C19 and 2C18 isozymes is listed as “strong specificity”.

Take `CCOc1cccc(C2(OC)OOC23C2CC4CC3CC(OCC[N+](C)(CC)CC)(C4)C2)c1` (stereo not shown) [Q+-Amino-Ad-Ph-OEt, Q^+-Amino-Ad-Ph-OEt dxt]: in the data set on CYP3A family isozymes, the “specificity for the CYP3A family isozymes” value is “strong specificity”.

Take `COc1ccc2sc(C3(OC)OOC34C3CC5CC(C3)CC4C5)cc2c1` (stereo not shown) [BZT-Me]: the “specificity for 2C19 and 2C18 isozymes” value in the data set with 2C19 and 2C18 isozymes is reported as “strong specificity”. Moreover, at CYP2C19 (FIG. 4A/5A, rhCYP microsomes, 25° C., 25 min, 10 μM substrate, 5 nM rhCYP450, isozyme-preferred potassium phosphate buffer, pH 7.4), the “specificity for the CYP2C19 isozyme” value is on record as “strong specificity”. Further, the “oxidation by other CYP isozyme” value with other CYP isozyme was “also oxidized”.

In the case of `CCOc1cccc(C2(OC)OOC23C2CC4CC3CC(OCCC(C(=O)[O-])C(=O)[O-])(C4)C2)c1.[Na+].[Na+]` (stereo not shown) [bis-CO2Na-Ad-Ph-OEt dxt], the “specificity for CYP2C8” value at CYP2C8 is given as “high specificity”.

In the case of `COC1(c2ccc(Cl)c(OCc3ccccc3)c2)OOC12C1CC3CC2CC(Cl)(C3)C1` (stereo not shown) [CDP-Star-Bn], the “specificity for the CYP3A family isozymes” value in the data set with CYP3A family isozymes is “strong specificity”. Besides, the “activity from CYP2C19 under CYP2C19 assay conditions” value on CYP2C19 (dioxetane as enzyme substrate, CYP2C19 assay conditions) was “significant activity”.
